This passage reports Kd and Km results from PMC11091702, “CD38 restrains the activity of extracellular cGAMP in a model of multiple myeloma” (iScience, 2024).

For one data set, the target named is T1, CD38 (rhCD38) (Homo sapiens, UniProt P28907).
T1 construct: ectodomain of recombinant human CD38 (His-tagged)
Kind of data set: tryptophan fluorescence quenching titration. Type of data set: binding.

The test system of data set [1] is T2, NC(=O)c1ccc[n+]([C@@H]2O[C@H](COP(=O)([O-])OP(=O)(O)OC[C@H]3O[C@@H](n4cnc5c4ncn4ccnc54)[C@H](O)[C@@H]3O)[C@@H](O)[C@H]2O)c1.
T2 construct: recombinant human His-tagged CD38 protein
Kind of data set: fluorescence hydrolase assay, Km determination. It is filed as biochemical, Homo sapiens.

Read-outs that look alike come from different tables or passages of the source.

T1 sequence (P28907 45-300): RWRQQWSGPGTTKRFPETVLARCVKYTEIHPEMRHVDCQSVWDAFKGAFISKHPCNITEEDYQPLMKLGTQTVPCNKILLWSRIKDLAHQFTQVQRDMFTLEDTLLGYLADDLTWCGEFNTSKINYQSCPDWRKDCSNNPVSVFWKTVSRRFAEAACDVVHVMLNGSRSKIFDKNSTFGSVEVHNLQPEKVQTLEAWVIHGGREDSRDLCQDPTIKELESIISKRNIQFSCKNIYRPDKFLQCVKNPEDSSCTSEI

For the compound `NC(=O)c1ccc[n+]([C@@H]2O[C@H](COP(=O)([O-])OP(=O)(O)OC[C@H]3O[C@@H](n4cnc5c(N)ncnc54)[C@H](O)[C@@H]3O)[C@@H](O)[C@H]2O)c1` [β-NAD], the Kd at CD38 (rhCD38) was 28 ± 9.4 µM.

Turning to CD38 (rhCD38) (Homo sapiens), the Km in data set [1] is given as 56.2 ± 8.9 x 10^−6 M.

On to `Nc1nc2c(ncn2[C@@H]2O[C@@H]3COP(=O)(S)O[C@H]4[C@@H](O)[C@H](n5cnc6c(N)ncnc65)O[C@@H]4COP(=O)(S)O[C@@H]2[C@@H]3O)c(=O)[nH]1` (stereo partly drawn) [2′3′-cG^sA^sMP], for which the Kd at CD38 (rhCD38) (read-out: Kd) stood at 46.3 ± 9.8 µM.

The Kd is the free concentration of one partner at which half of the binding sites on the other are occupied at equilibrium, for simple one-to-one binding.
